Key:
[1] = biological target: GABA-A receptor; anion channel (Rattus norvegicus) (UniProt O09028+P15431+P18506+P18508+P19969+P20236+P23574+P23576+P28471+P28473+P30191+P62813+P63079+P63138+Q91ZM7+Q9ES14); assay: Percent displacement of [3H]GABA (1 mM) from Gamma-aminobutyric acid A receptor of rat cerebral cortex; assay type: tissue-based
[2] = biological target: GABA B receptor (Rattus norvegicus) (UniProt Q9Z0U4+O88871); assay: Percent displacement of [3H]GABA (1 mM) from Gamma-aminobutyric acid B receptor of rat cerebellum; assay type: tissue-based
[3] = biological target: Calcium/calmodulin-dependent protein kinase type II subunit alpha (Rattus norvegicus, UniProt P11275); assay: Displacement of [3H]NCS-382 (16 nM) from GHB receptor of rat cerebrocortical membranes; assay type: cell membranes, Membrane
Chain of Calcium/calmodulin-dependent protein kinase type II subunit alpha (P11275 whole entry): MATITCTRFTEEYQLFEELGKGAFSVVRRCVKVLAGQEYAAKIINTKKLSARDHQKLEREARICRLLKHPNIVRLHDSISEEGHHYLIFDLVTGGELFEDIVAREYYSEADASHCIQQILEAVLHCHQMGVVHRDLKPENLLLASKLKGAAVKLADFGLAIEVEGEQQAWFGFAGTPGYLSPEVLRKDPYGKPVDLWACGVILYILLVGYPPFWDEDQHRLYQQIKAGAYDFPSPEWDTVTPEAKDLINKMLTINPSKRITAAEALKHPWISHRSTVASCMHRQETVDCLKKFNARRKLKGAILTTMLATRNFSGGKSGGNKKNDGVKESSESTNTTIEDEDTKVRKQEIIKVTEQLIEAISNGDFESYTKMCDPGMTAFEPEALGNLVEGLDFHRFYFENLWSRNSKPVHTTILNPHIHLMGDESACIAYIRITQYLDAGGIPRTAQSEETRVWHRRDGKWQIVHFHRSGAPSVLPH

| Structure (SMILES) | inhibition [1] [%] | inhibition [2] [%] | IC50 [3] [µM] |
| --- | --- | --- | --- |
| O=C(O)Cc1cccc(OCCCc2ccccc2)c1 | 17.4 | 6 | 4.5 |
| O=C(O)CCCOc1ccccc1 | 6.3 | 6.5 | 210 |
| O=C(O)CCCO | 35.5 | 41.1 |  |
| O=C(O)Cc1cccc(OCc2ccccc2)c1 | 11 | -4.7 | 46 |
| O=C(O)Cc1cccc(Oc2ccccc2)c1 | 2.7 | -5.5 | 16.3 |
| O=C(O)Cc1cccc(OCCc2ccccc2)c1 | 15.1 | -1.2 | 8.3 |
| O=C(O)Cc1cccc(O)c1 [3-Hydroxyphenylacetate] | 44.2 | 14 | 12 |
